Data on 25 compounds can be found in PubChem BioAssay (NCI).

Molecules are shown by their SMILES.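 Exposure lasted 48 hours, with cells grown in 96-well plates and compounds tested at five concentrations. Definition used: TGI = concentration required for complete inhibition of growth.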

Assay in all cases: DTP human tumour cell line panel, 48 h
Experiment [1] concerns ACHN renal.
The test system of experiment [2] is NCI-H460 lung.
The subject of experiment [3] is COLO 205 colon.
For experiment [4], the system named is 786-0 renal.
Experiment [5] relates to KM12 colon.
Experiment [6] concerns PC-3 prostate.
Experiment [7] relates to NCI-H522 lung.
Experiment [8] has as its system UO-31 renal.
The subject of experiment [9] is MDA-MB-435.
For experiment [10], the system named is HOP-62 NSCLC.
Experiment [11] has as its system OVCAR-3 ovarian.
Experiment [12] deals with OVCAR-8 ovarian.

With `Nn1c(CNc2ccc(-c3nnc(Nc4ccc(Cl)cc4)n3N)cc2)nnc1Nc1ccc(Cl)cc1`, the TGI in experiment [1], in experiment [2], in [3], in experiment [4], in experiment [5] and in [6] was more than 100 µM each time. Further, the TGI in experiment [7] was more than 100 µM; in [8] it was more than 100 µM; in experiment [9], more than 100 µM; in [10], 93 µM.
Take `COC(=O)N1CC[C@@H]2CCC=C(c3cccc4c3OCO4)[C@@H]21`: the TGI in experiment [1], in experiment [2], in [3], in experiment [11], in experiment [4] and in experiment [5] was more than 100 µM throughout. For the same compound, the TGI in experiment [6], in [7], in experiment [8], in [9], in experiment [12] and in [10] was more than 100 µM throughout.
As to `COc1ccc(-c2cc(-c3ccccc3)n(C3OC(COC(C)=O)C(OC(C)=O)C(OC(C)=O)C3OC(C)=O)c(=S)c2C#N)cc1` (configuration not stated), the TGI in experiment [1] worked out at 29.7 µM; in [2] it was 22.2 µM; in experiment [3], 23.4 µM; in [11] it was 23.5 µM; in experiment [4], 12.4 µM; in [5], 44.7 µM. Further, the TGI in [6] came out at 32.3 µM; in experiment [7] it was 18.5 µM; in experiment [8] it was 21.3 µM; in experiment [9], 19.4 µM; in [12], 19.7 µM; in [10], 14.4 µM.
Turning to `O=C1/C(=C/c2ccc(O)cc2)NC(=S)N1CN1CCCCC1`, the TGI in experiment [1] is more than 100 µM; in [3], 56.4 µM; in experiment [11], more than 100 µM; in experiment [4], more than 100 µM; in experiment [5], more than 100 µM; in experiment [6] it was more than 100 µM. Further, the total growth inhibition concentration (TGI) in experiment [7], in [8], in [9], in experiment [12] and in experiment [10] was more than 100 µM each time.
Regarding `CC(C)(C)OC(=O)N1C(C2=COc3ccccc3O2)=COc2ccccc21`, the TGI in experiment [1] is 75.3 µM; in experiment [2] it was more than 100 µM; in experiment [3] it was 38.2 µM; in experiment [11], 47.2 µM; in experiment [4], more than 100 µM; in [5], more than 100 µM. For the same compound, the TGI in experiment [6] is more than 100 µM; in experiment [7] it was 40.8 µM; in experiment [8], more than 100 µM; in experiment [9], more than 100 µM; in [12], more than 100 µM; in [10], 45.3 µM.
Turning to `COc1ccc(C2CCc3nc4nc(N)nc(N)c4cc3C2)cc1` (configuration not stated), the TGI in experiment [1] was 22 µM; in [2], more than 100 µM; in experiment [3], more than 100 µM; in [11], 43.9 µM; in experiment [4], 17 µM; in [5], more than 100 µM. The total growth inhibition concentration (TGI) was more than 100 µM in experiment [6]; more than 100 µM in [7]; 78.2 µM in [9]; 22.5 µM in experiment [12]; 33.9 µM in experiment [10].
For the compound `COc1cc(Cn2c3c(c4c(CN(C)C)c(O)ccc42)C(=O)c2ccccc2C3=O)cc(OC)c1`, the TGI in experiment [1] is 29.6 µM; in [2], 32.3 µM; in [3], 85.3 µM; in experiment [11], 90.5 µM; in [4], 27.6 µM; in [5], more than 100 µM. For the same compound, the TGI in experiment [6] stood at 35.4 µM; in experiment [8], 27.7 µM; in experiment [9], 37 µM; in experiment [12], 28.3 µM; in experiment [10], 30.9 µM.
`O=C(N=Nc1ccc([N+](=O)[O-])cc1)NNc1ccc([N+](=O)[O-])cc1`: the TGI is 38.8 µM in experiment [1]; 47.2 µM in experiment [2]; 59.2 µM in [11]; 27 µM in experiment [4]; 52 µM in experiment [6]; 33.1 µM in experiment [7]. The TGI in experiment [8] is 32.6 µM; in experiment [9] it was 57.5 µM; in [12], 41.9 µM; in experiment [10], 34 µM.
For the compound `c1ccc(Cc2cccc3cc(-c4ccc(-c5ccccc5)cc4)[nH]c23)cc1`, the TGI in [1], in experiment [2], in experiment [3], in experiment [11], in [4] and in experiment [5] was more than 100 µM in each case. Also, the TGI in experiment [6], in experiment [7], in experiment [8], in experiment [9], in experiment [12] and in [10] was more than 100 µM throughout.
`Clc1cc2nc(C3CCCO3)[nH]c2cc1Cl` (configuration not stated): the TGI in [1], in experiment [3], in experiment [11], in experiment [4], in experiment [5] and in [6] was more than 100 µM throughout. Also, the TGI in experiment [7] was 66 µM; in experiment [8], 53.9 µM; in experiment [9], more than 100 µM; in [12], more than 100 µM; in experiment [10], more than 100 µM.
With `Cc1cccc2c1Oc1cc(Cl)ccc1C2NC(=O)CCN1CCCCC1` (configuration not stated), the TGI was 31.6 µM in [2]; 34.6 µM in experiment [3]; 28 µM in [4]; 30.8 µM in experiment [5]; 30.5 µM in experiment [6]; 31.3 µM in experiment [7]. For the same compound, the TGI in experiment [8] was determined as 29.2 µM; in [9], 30.7 µM; in experiment [12], 30.2 µM; in experiment [10], 28.3 µM.
For `ON=C1CCCCC(=NO)CCCC1`, the TGI in [1], in [2], in experiment [3], in experiment [4], in experiment [5] and in experiment [6] was more than 100 µM in each case. Also, the concentration for total growth inhibition (TGI) in [7], in experiment [8], in [9] and in experiment [12] was more than 100 µM each time.
Regarding `CCCS(=O)(=O)O`, the TGI in [1], in experiment [2], in experiment [3], in experiment [11], in experiment [5] and in experiment [6] was more than 100 µM in each case. In addition, the TGI in [7], in experiment [8], in [9], in experiment [12] and in experiment [10] was more than 100 µM in each case.
Consider `CCOC(=O)C(Cc1ccc2c(c1)CCC2)(Cc1ccc2c(c1)CCC2)C(=O)OCC`, for which the TGI in experiment [1], in [2], in experiment [11], in experiment [4], in experiment [6] and in experiment [7] was more than 100 µM throughout. Besides, the TGI in experiment [8], in experiment [9], in [12] and in experiment [10] was more than 100 µM in each case.
For the compound `O=C1C=C2S[C@H]3C[C@]2(C=C1Br)c1c(c(O)c2c4c1=NCCC=4C=N2)N3`, the TGI in experiment [1] is 1.76 µM; in experiment [2] it was 11.6 µM; in [3] it was 0.21 µM; in experiment [11] it was 1.12 µM; in [4] it was 2.14 µM; in [5], 3.83 µM. Further, the TGI in experiment [6] came out at 4.52 µM; in [7] it was 0.716 µM; in [8] it was 2.94 µM; in [9] it was 0.305 µM; in experiment [12], 1.56 µM.
In the case of `CSC1=N/C(=C\c2cccs2)C(=O)N1CN1CCOCC1`, the concentration for total growth inhibition (TGI) in [1], in experiment [3], in experiment [11], in experiment [4], in experiment [5] and in experiment [6] was more than 100 µM in each case. The TGI in experiment [7], in experiment [8], in experiment [9], in experiment [12] and in experiment [10] was more than 100 µM each time.
As to `C/C(CC(O)(C(F)(F)F)C(F)(F)F)=N\N`, the TGI in experiment [1], in [2], in experiment [3], in experiment [11], in [4] and in experiment [5] was more than 10 µM throughout. Moreover, the TGI in experiment [6], in experiment [7], in experiment [9], in [12] and in experiment [10] was more than 10 µM in each case.
For `COCCc1c(C)c(C#N)c2n(C)c3ccccc3n2c1=O`, the TGI in experiment [1], in experiment [2], in [3], in experiment [11], in experiment [4] and in experiment [5] was more than 10 µM each time. Besides, the TGI in experiment [6], in [7], in experiment [9], in experiment [12] and in experiment [10] was more than 10 µM each time.
As for `CC1=CC(c2ccccc2)OP1(=O)c1ccccc1` (configuration not stated), the TGI in experiment [1], in [2], in experiment [3], in experiment [11], in experiment [4] and in experiment [5] was more than 100 µM each time. Besides, the TGI in experiment [6], in experiment [7], in experiment [9], in [12] and in [10] was more than 100 µM in each case.
In the case of `O=C(CSc1nc2ccc(I)cc2c(=O)n1Cc1ccccc1)N/N=C/c1ccccc1`, the TGI in [1] was more than 100 µM; in experiment [2], more than 100 µM; in [3] it was more than 100 µM; in [11], 33.6 µM; in [4], 32.6 µM; in experiment [5], more than 100 µM. Besides, the TGI in experiment [6] is 28.6 µM; in experiment [7], 40 µM; in experiment [9], more than 100 µM; in experiment [12], 60.5 µM; in [10], 20.9 µM.
On to `COC1/C=C/C(C)C(OC)CC(O)/C=C/C(C)C(C(C)C(OC)C(C)CCC(=O)C(C)C(C/C=C/N(C)C=O)OC)OC(=O)/C=C/C=C(\C)CC(OC)C(OC)C2=CC(=O)O[C@@H](C(C)C(OC)C1)[C@H]2O` (some centres not stated), for which the TGI came out at 0.158 µM in experiment [1]; 0.188 µM in experiment [2]; 0.0489 µM in experiment [11]; 0.113 µM in [4]; 0.0862 µM in experiment [6]; 0.0722 µM in experiment [7]. The TGI was determined as 0.0761 µM in experiment [8], 0.195 µM in [9], 0.199 µM in experiment [12] and 0.0673 µM in experiment [10].
As to `C=C1c2nc3ccccc3n2C=C(c2ccc(Cl)cc2)N1c1ccc(OCCN2CCOCC2)cc1`, the TGI is more than 100 µM in [1]; more than 100 µM in [2]; 98.6 µM in [3]; more than 100 µM in [11]; more than 100 µM in [4]; more than 100 µM in [5]. In addition, the TGI in [6], in experiment [8], in experiment [9] and in experiment [10] was more than 100 µM throughout.
As to `O=C(N/N=C(/COc1cccc(Cl)c1)N=Cc1ccncc1)c1ccncc1`, the TGI in experiment [1], in experiment [2], in [3], in [11], in [4] and in experiment [5] was more than 100 µM throughout. Moreover, the TGI in [6], in experiment [7], in experiment [9], in experiment [12] and in [10] was more than 100 µM in each case.
Turning to `N#CS/C(C(Cl)=C(Cl)Cl)=C(/Cl)[N+](=O)[O-]`, the TGI came to 3.1 µM in experiment [1]; 33.2 µM in [2]; 3.66 µM in [3]; 3.1 µM in experiment [11]; 32.4 µM in [5]; 9.79 µM in experiment [6]. Besides, the TGI in [7] amounted to 2.13 µM; in experiment [8], 3.1 µM; in [9] it was 3.19 µM; in [12], 3.49 µM; in [10], 33.4 µM.
For the compound `CCN(CC)CCNc1ccc([N+](=O)[O-])c2nc3ccccc3c(N)c12`, the TGI in experiment [1] worked out at 3.75 µM; in experiment [2] it was 1.24 µM; in experiment [3], 1.47 µM; in experiment [11], 5.13 µM; in [4] it was 2.04 µM; in [5], 1.41 µM. Besides, the TGI in experiment [6] was 1.74 µM; in experiment [8], 5.94 µM; in experiment [9] it was 1.67 µM; in experiment [12] it was more than 10 µM; in experiment [10] it was more than 10 µM.
